Test results reported in the NIST ThermoML archive (doi:10.1021/acs.jced.9b00074).

Test: xn = mol fraction of the nth substance listed
Details: 100 kPa, Liquid; for viscosity: Falling or rolling sphere viscometry; for mass density: Vibrating tube method

CC12CC3CC(C1)CC(C)(C3)C2 [1,3-dimethyladamantane] + OC1CCCC1
Details | mass density, 293.15 K [kg/m3] | mass density, 298.15 K [kg/m3] | mass density, 303.15 K [kg/m3] | mass density, 308.15 K [kg/m3] | viscosity, 293.15 K [mPa·s] | viscosity, 298.15 K [mPa·s] | viscosity, 303.15 K [mPa·s] | viscosity, 308.15 K [mPa·s] | viscosity, 313.15 K [mPa·s]
x2 = 0.0963 | 903.9 | 900.22 | 896.53 | 892.84 | 3.868 | 3.42 | 3.048 | 2.729 | 2.457
x2 = 0.1973 | 906.97 | 903.23 | 899.47 | 895.7 | 4.123 | 3.627 | 3.212 | 2.863 | 2.565
x2 = 0.3101 | 910.8 | 907 | 903.18 | 899.33 | 4.531 | 3.953 | 3.477 | 3.076 | 2.736
x2 = 0.4019 | 914.34 | 910.49 | 906.62 | 902.72 | 4.967 | 4.3 | 3.756 | 3.302 | 2.919
x2 = 0.4995 | 918.49 | 914.58 | 910.65 | 906.7 | 5.61 | 4.805 | 4.154 | 3.618 | 3.174
x2 = 0.5999 | 923.27 | 919.31 | 915.31 | 911.29 | 6.396 | 5.428 | 4.643 | 4.007 | 3.484
x2 = 0.6997 | 928.58 | 924.57 | 920.53 | 916.45 | 7.57 | 6.304 | 5.319 | 4.532 | 3.891
x2 = 0.7976 | 934.17 | 930.15 | 926.1 | 922.01 | 8.863 | 7.3 | 6.092 | 5.135 | 4.365
x2 = 0.9003 | 940.6 | 936.59 | 932.59 | 928.43 | 10.32 | 8.417 | 6.972 | 5.829 | 4.915
